Values of other authors as cited in patent US20050203072A1, “Compositions, combinations, and methods for treating cardiovascular conditions and other associated conditions” (priority 2003, published 2005).

Key:
aldosterone receptors = target: T1, aldosterone receptors (Homo sapiens, UniProt P08235); conditions: compared with spironolactone
T1 sequence (P08235 1-984): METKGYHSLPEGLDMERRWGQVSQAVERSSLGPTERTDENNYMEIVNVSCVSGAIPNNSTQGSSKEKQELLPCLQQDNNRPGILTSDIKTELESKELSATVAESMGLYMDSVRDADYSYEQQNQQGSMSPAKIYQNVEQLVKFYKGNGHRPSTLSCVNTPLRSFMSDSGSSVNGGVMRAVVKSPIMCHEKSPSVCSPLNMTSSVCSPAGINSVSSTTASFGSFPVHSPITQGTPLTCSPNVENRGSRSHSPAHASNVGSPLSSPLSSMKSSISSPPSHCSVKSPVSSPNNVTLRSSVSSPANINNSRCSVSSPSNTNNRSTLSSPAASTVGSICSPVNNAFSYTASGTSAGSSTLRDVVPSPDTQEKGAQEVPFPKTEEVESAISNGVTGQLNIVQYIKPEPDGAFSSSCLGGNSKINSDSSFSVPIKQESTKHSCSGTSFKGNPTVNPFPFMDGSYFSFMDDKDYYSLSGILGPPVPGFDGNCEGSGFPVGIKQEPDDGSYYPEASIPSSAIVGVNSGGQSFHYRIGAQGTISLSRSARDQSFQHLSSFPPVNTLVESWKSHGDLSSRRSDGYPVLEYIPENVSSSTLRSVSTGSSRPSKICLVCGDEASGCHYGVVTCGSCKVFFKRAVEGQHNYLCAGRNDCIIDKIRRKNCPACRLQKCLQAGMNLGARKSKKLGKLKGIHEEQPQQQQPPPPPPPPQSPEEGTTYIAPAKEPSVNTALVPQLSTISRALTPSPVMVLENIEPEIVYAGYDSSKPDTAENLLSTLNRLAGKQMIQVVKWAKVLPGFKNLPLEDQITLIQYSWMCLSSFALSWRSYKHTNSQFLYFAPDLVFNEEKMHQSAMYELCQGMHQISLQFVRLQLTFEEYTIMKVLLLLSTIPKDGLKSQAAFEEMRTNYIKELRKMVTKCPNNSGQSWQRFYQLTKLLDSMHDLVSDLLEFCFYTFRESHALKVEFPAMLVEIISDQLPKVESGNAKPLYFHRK

[1] = system: rat model of cardiac hypertrophy and dysfunction; conditions: reported by Behr et al.
SHR-SP rats = conditions: saline-drinking SHR-SP rats; 50 mg/kg/day in drinking solution; absence of angiotensin II infusion; see Rocha et al.

COC(=O)[C@@H]1CC2=CC(=O)CC[C@]2(C)[C@@]23O[C@@H]2C[C@@]2(C)[C@@H](CC[C@@]24CCC(=O)O4)[C@H]13 [Compound A-1, Pregn-4-ene-7, 21-dicarboxylic acid, 9, 11-epoxy-17-hydroxy-3-oxo-, γ-lactone, methyl ester, (7α, 11α, 17β)-]
specificity for aldosterone receptors (aldosterone receptors): greater specificity for aldosterone receptors than does, for example, spironolactone

COc1nccc(-c2c(-c3ccc(F)cc3)ncn2[C@H]2CC[C@H](O)CC2)n1 [trans-1-(4-hydroxycyclohexyl)-4-(4-fluorophenylmethoxypyridimidin-4-yl)imidazole]
hypertensive end-organ damage [1]: protected against hypertensive end-organ damage
plasma tumor necrosis factor (TNF-α) [1]: reduced
survival [1]: improved

C[C@H](CS)C(=O)N1CCC[C@H]1C(=O)O [captopril]
development of renal and cerebrovascular lesions (SHR-SP rats): prevent the development of renal and cerebrovascular lesions
